Patent EP1007530B1, “6-O-SUBSTITUTED ERYTHROMYCIN COMPOUNDS AND METHOD FOR MAKING SAME” (ABBOTT LABORATORIES, priority 1996, dated 1997)

Tests used:
Assay in all cases: In vitro assay of antibacterial activity (agar dilution MIC)
Format in all cases: cell-based
[1] = tested on: Actinetobacter calcoaceticus CMX 669; conditions: BHI agar, 35-37 °C, 20 to 24 hours, unit assumed
Protocol: (§1) Representative compounds of the present invention were assayed in vitro for antibacterial activity as follows: Twelve petri dishes containing successive aqueous dilutions of the test compound mixed with 10 mL of sterilized Brain Heart Infusion (BHI) agar (Difco 0418-01-5) were prepared. Each plate was inoculated with 1:100 (or 1:10 for slow-growing strains, such as Micrococcus and Streptococcus) dilutions of up to 32 different microorganisms, using a Steers replicator block. The inoculated plates were incubated at 35-37 °C for 20 to 24 hours, In addition, a control plate, using BHI agar containing no test compound, was prepared and incubated at the beginning and end of each test.
(§2) An additional plate containing a compound having known susceptibility patterns for the organisms being tested and belonging to the same antibiotic class as the test compound was also prepared and incubated as a further control, as well as to provide test-to-test comparability.
(§3) After incubation, each plate was visually inspected. The minimum inhibitory concentration (MIC) was defined as the lowest concentration of drug yielding no growth, a slight haze, or sparsely isolated colonies on the inoculum spot as compared to the growth control. […]

[2] = tested on: Staphylococcus aureus A5177; conditions: BHI agar, 35-37 °C, 20 to 24 hours, unit assumed
Protocol: as §1, §2, §3

[3] = tested on: Streptococcus bovis A-5169; conditions: BHI agar, 35-37 °C, 20 to 24 hours, unit assumed
Protocol: as §1
as §2, with “comparability. Erythromycin A was used for this purpose.” for “comparability.”
as §3

[4] = tested on: Candida albicans CCH 442; conditions: BHI agar, 35-37 °C, 20 to 24 hours, unit assumed
Protocol: as §1
as §2, with “comparability. Erythromycin A was used for this purpose.” for “comparability.”
as §3

[5] = tested on: Pseudomonas aeruginosa DPHD-5263; conditions: BHI agar, 35-37 °C, 20 to 24 hours, in µg/mL (unit assumed)
Protocol: as §1
as §2, with “comparability. Erythromycin A was used for this purpose.” for “comparability.”
as §3

[6] = tested on: Pseudomonas aeruginosa BMH10; conditions: BHI agar, 35-37 °C, 20 to 24 hours, in µg/mL (unit assumed)
Protocol: as §1
as §2, with “comparability. Erythromycin A was used for this purpose.” for “comparability.”
as §3

[7] = tested on: Staphylococcus aureus CMX 642A; conditions: BHI agar, 35-37 °C, 20 to 24 hours, unit assumed
Protocol: as §1
as §2, with “comparability. Erythromycin A was used for this purpose.” for “comparability.”
as §3

[8] = tested on: Escherichia coli KNK 437; conditions: BHI agar, 35-37 °C, 20 to 24 hours, unit assumed
Protocol: as §1
as §2, with “comparability. Erythromycin A was used for this purpose.” for “comparability.”
as §3

[9] = tested on: Providencia struartii CMX 640; conditions: BHI agar, 35-37 °C, 20 to 24 hours, unit assumed
Protocol: as §1
as §2, with “comparability. Erythromycin A was used for this purpose.” for “comparability.”
as §3

[10] = tested on: Enterococcus faecium ATCC 8043; conditions: BHI agar, 35-37 °C, 20 to 24 hours, unit assumed
Protocol: as §1
as §2, with “comparability. Erythromycin A was used for this purpose.” for “comparability.”
as §3

[11] = tested on: Streptococcus agalactiae CMX 508; conditions: BHI agar, 35-37 °C, 20 to 24 hours, unit assumed
Protocol: as §1
as §2, with “comparability. Erythromycin A was used for this purpose.” for “comparability.”
as §3

[12] = tested on: Streptococcus pyogenes EES61; conditions: BHI agar, 35-37 °C, 20 to 24 hours, unit assumed
Protocol: as §1
as §2, with “comparability. Erythromycin A was used for this purpose.” for “comparability.”
as §3

[13] = tested on: Staphylococcus aureus NCTC10649M; conditions: BHI agar, 35-37 °C, 20 to 24 hours, unit assumed
Protocol: as §1
as §2, with “comparability. Erythromycin A was used for this purpose.” for “comparability.”
as §3

[14] = tested on: Staphylococcus aureus ATCC 6538P; conditions: BHI agar, 35-37 °C, 20 to 24 hours, unit assumed
Protocol: as §1
as §2, with “comparability. Erythromycin A was used for this purpose.” for “comparability.”
as §3

[15] = tested on: Staphylococcus aureus A-5278; conditions: BHI agar, 35-37 °C, 20 to 24 hours, unit assumed
Protocol: as §1
as §2, with “comparability. Erythromycin A was used for this purpose.” for “comparability.”
as §3

[16] = tested on: Mycobacterium smegmatis ATCC 114; conditions: BHI agar, 35-37 °C, 20 to 24 hours, unit assumed
Protocol: as §1
as §2, with “comparability. Erythromycin A was used for this purpose.” for “comparability.”
as §3

[17] = tested on: Staphylococcus epidermidis 3519; conditions: BHI agar, 35-37 °C, 20 to 24 hours, unit assumed
Protocol: as §1
as §2, with “comparability. Erythromycin A was used for this purpose.” for “comparability.”
as §3

[18] = tested on: Enterobacter aerogenes ATCC 13048; conditions: BHI agar, 35-37 °C, 20 to 24 hours, unit assumed
Protocol: as §1
as §2, with “comparability. Erythromycin A was used for this purpose.” for “comparability.”
as §3

[19] = tested on: Streptococcus pyogenes PIU 2548; conditions: BHI agar, 35-37 °C, 20 to 24 hours, unit assumed
Protocol: as §1
as §2, with “comparability. Erythromycin A was used for this purpose.” for “comparability.”
as §3

[20] = tested on: Pseudomonas aeruginosa 5007; conditions: BHI agar, 35-37 °C, 20 to 24 hours, unit assumed
Protocol: as §1
as §2, with “comparability. Erythromycin A was used for this purpose.” for “comparability.”
as §3

[21] = tested on: Pseudomonas aeruginosa K799/WT; conditions: BHI agar, 35-37 °C, 20 to 24 hours, unit assumed
Protocol: as §1
as §2, with “comparability. Erythromycin A was used for this purpose.” for “comparability.”
as §3

[22] = tested on: Staphylococcus aureus CMX 553; conditions: BHI agar, 35-37 °C, 20 to 24 hours, unit assumed
Protocol: as §1
as §2, with “comparability. Erythromycin A was used for this purpose.” for “comparability.”
as §3

[23] = tested on: Escherichia coli DC-2; conditions: BHI agar, 35-37 °C, 20 to 24 hours, unit assumed
Protocol: as §1
as §2, with “comparability. Erythromycin A was used for this purpose.” for “comparability.”
as §3

[24] = tested on: Escherichia coli JUHL; conditions: BHI agar, 35-37 °C, 20 to 24 hours, in µg/mL (unit assumed)
Protocol: as §1
as §2, with “comparability. Erythromycin A was used for this purpose.” for “comparability.”
as §3

[25] = tested on: Escherichia coli H560; conditions: BHI agar, 35-37 °C, 20 to 24 hours, unit assumed
Protocol: as §1
as §2, with “comparability. Erythromycin A was used for this purpose.” for “comparability.”
as §3

[26] = tested on: Escherichia coli SS; conditions: BHI agar, 35-37 °C, 20 to 24 hours, unit assumed
Protocol: as §1
as §2, with “comparability. Erythromycin A was used for this purpose.” for “comparability.”
as §3

[27] = tested on: Streptococcus pyogenes 930; conditions: BHI agar, 35-37 °C, 20 to 24 hours, unit assumed
Protocol: as §1
as §2, with “comparability. Erythromycin A was used for this purpose.” for “comparability.”
as §3

[28] = tested on: Micrococcus luteus ATCC 4698; conditions: BHI agar, 35-37 °C, 20 to 24 hours, unit assumed
Protocol: as §1
as §2, with “comparability. Erythromycin A was used for this purpose.” for “comparability.”
as §3

[29] = tested on: Pseudomonas aeruginosa K799/61; conditions: BHI agar, 35-37 °C, 20 to 24 hours, unit assumed
Protocol: as §1
as §2, with “comparability. Erythromycin A was used for this purpose.” for “comparability.”
as §3

[30] = tested on: Staphylococcus aureus 1775; conditions: BHI agar, 35-37 °C, 20 to 24 hours, unit assumed
Protocol: as §1
as §2, with “comparability. Erythromycin A was used for this purpose.” for “comparability.”
as §3

[31] = tested on: Pseudomonas aeruginosa DPHD-2862; conditions: BHI agar, 35-37 °C, 20 to 24 hours, unit assumed
Protocol: as §1
as §2, with “comparability. Erythromycin A was used for this purpose.” for “comparability.”
as §3

[32] = tested on: Pseudomonas capacia 2961; conditions: BHI agar, 35-37 °C, 20 to 24 hours, in µg/mL (unit assumed)
Protocol: as §1
as §2, with “comparability. Erythromycin A was used for this purpose.” for “comparability.”
as §3

[33] = tested on: Micrococcus luteus ATCC 9341; conditions: BHI agar, 35-37 °C, 20 to 24 hours, unit assumed
Protocol: as §1
as §2, with “comparability. Erythromycin A was used for this purpose.” for “comparability.”
as §3

[34] = tested on: Klebsiella pneumoniae ATCC 8045; conditions: BHI agar, 35-37 °C, 20 to 24 hours, unit assumed
Protocol: as §1
as §2, with “comparability. Erythromycin A was used for this purpose.” for “comparability.”
as §3

Row | SMILES | MIC [1] | MIC [2] | MIC [3] | MIC [4] | MIC [5] | MIC [6] | MIC [7] | MIC [8] | MIC [9] | MIC [10] | MIC [11] | MIC [12] | MIC [13] | MIC [14] | MIC [15] | MIC [16] | MIC [17] | MIC [18] | MIC [20] | MIC [21] | other results
1 | CC[C@H]1OC(=O)[C@H](C)[C@@H](O[C@H]2C[C@@](C)(OC)[C@@H](O)[C@H](C)O2)[C@H](C)[C@@H](O[C@@H]2O[C@H](C)C[C@H](N(C)C)[C@H]2O)[C@](C)(OCC(O)CO)C[C@@H](C)C(=O)[C@H](C)[C@@H](O)[C@]1(C)O (stereo partly shown) [Example 3, Compound of Formula (X): X is =O, R is 2.3-dihydroxypropyl] | 12.5 µg/mL | 50 µg/mL | 0.2 µg/mL | > 100 µg/mL | > 100 | >100 | 1.56 µg/mL | 100 µg/mL | > 100 µg/mL | 0.39 µg/mL | 0.39 µg/mL | 0.2 µg/mL | 1.56 µg/mL | 1.56 µg/mL | > 100 µg/mL | 0.78 µg/mL | 0.78 µg/mL | > 100 µg/mL | > 100 µg/mL | > 100 µg/mL | MIC [19]: 12.5 µg/mL; MIC [22]: 3.1 µg/mL; MIC [23]: 50 µg/mL; MIC [24]: 50; MIC [25]: 25 µg/mL; MIC [26]: 1.56 µg/mL; MIC [27]: > 100 µg/mL; MIC [28]: 1.56 µg/mL; MIC [29]: 1.56 µg/mL; MIC [30]: > 100 µg/mL; MIC [31]: > 100 µg/mL; MIC [32]: >100; MIC [33]: 0.1 µg/mL; MIC [34]: > 100 µg/mL
2 | CC[C@H]1OC(=O)[C@H](C)[C@@H](O[C@H]2C[C@@](C)(OC)[C@@H](O)[C@H](C)O2)[C@H](C)[C@@H](O[C@@H]2O[C@H](C)C[C@H](N(C)C)[C@H]2O)[C@](C)(OCC(O)Cn2ccnc2)C[C@@H](C)C(=O)[C@H](C)[C@@H](O)[C@]1(C)O (stereo partly shown) [Example 5, Compound of Formula (X): X is =O, R is 2-hydroxy-3-(imidazol-1-yl)propyl] | 12.5 µg/mL | 12.5 µg/mL | 0.05 µg/mL | > 100 µg/mL | > 100 | 100 | 0.78 µg/mL | 50 µg/mL | > 100 µg/mL | 0.39 µg/mL | 0.1 µg/mL | 0.05 µg/mL | 0.78 µg/mL | 0.78 µg/mL | > 100 µg/mL | 1.56 µg/mL | 1.56 µg/mL | 100 µg/mL | > 100 µg/mL | > 100 µg/mL | MIC [22]: 0.78 µg/mL; MIC [23]: 50 µg/mL; MIC [24]: 25; MIC [25]: 50 µg/mL; MIC [26]: 0.78 µg/mL; MIC [27]: > 100 µg/mL; MIC [28]: 3.1 µg/mL; MIC [29]: 1.56 µg/mL; MIC [30]: > 100 µg/mL; MIC [31]: > 100 µg/mL; MIC [32]: > 100; MIC [33]: 0.1 µg/mL; MIC [34]: 100 µg/mL
